Laboratory results: article PMC12526212, “Novel Isolongifolenone-Based Caprolactam Derivatives as Potential Anticancer Agents via the p53/mTOR/Autophagy Pathway” (Molecules, 2025)

What was measured:
MCF-7 cells [1] = assay: Monodansylcadaverine (MDC) staining assay for autophagy; type: cell-based, human; settings: 24 h, compared with control; 3-MA as co-treatment with E10
Experimental: To investigate whether E10 induced autophagy in MCF-7 cells, we performed Monodansylcadaverine (MDC) staining, transmission electron microscopy (TEM), and Western blot analysis to evaluate autophagy-related markers. MDC is a fluorescent probe commonly used to detect the formation of autophagic vacuoles, as it specifically labels autophagosomes.
MDC is a staining indicator for the formation of autophagosome. MCF-7 cells were seeded at a density of 2 × 10^5 cells per well in 6-well plates. MCF-7 cells were inoculated into a 6-well plate, and the cells were treated with E10 for 24 h. The treated cells were washed twice with buffer and then stained with MDC (Beijing Solarbio Science & Technology Co., Ltd., Beijing, China) for 40 min. The cells were then detected under a fluorescence microscope (Carl Zeiss, Jena, Germany).

MCF-7 cells [2] = assay: Annexin V/PI apoptosis assay by flow cytometry; type: cell-based, human
Experimental: The ability of drugs to induce cancer cell apoptosis is a key indicator of their chemotherapeutic potential. […] To examine the apoptotic effects of E10, an Annexin V-FITC dual-staining assay (with flow cytometric analysis) was performed. As shown in Figure 3A (also Figure 3C), treatment with increasing concentrations of E10 induced a marked elevation in apoptotic cell populations.
Autophagy has bidirectional regulation effects on cell survival. To confirm the role of autophagy in E10-induced cell death, 3-MA was used as an autophagy blocker.
MCF-7 cells were seeded at a density of 6 × 10^5 cells per well in 12-well plates and incubated in a 37 °C, 5% CO2 incubator for 24 h. After treatment with different concentrations of compound E10, the cells were washed with PBS two times, collected by trypsin enzymic digestion and centrifugation, and the collected cells were subsequently stained with 5 µL Annexin V-APC (YSRIBIO-C1084) and 5 µL PI for 10 min in the dark conditions. The cell apoptosis was measured with the flow cytometry (BD), and the data were analyzed by flowjo 10.6 software.

[3] = test system: MCF-7 multicellular tumor spheroids; assay: 3D spheroid tumor model (calcein AM/PI); type: cell-based, human; settings: E10 1, 5 and 10 μM, 4 days
From the text: Three-dimensional (3D) cell culture provides an environment that allows cells to grow and interact with their surroundings in all spatial dimensions, closely mimicking the physiological conditions found in vivo [44]. […] To evaluate the long-term antitumor effects of E10 in a more physiologically relevant model, a 3D spheroid tumor model was established using MCF-7 breast cancer cells. Each spheroid was formed by approximately 2000 MCF-7 cells and cultured for 3 days to allow spheroid maturation. These spheroids were subsequently treated with varying concentrations of E10 (1, 5, and 10 μM) at 48-h intervals over a period of 4 days. For visualization, the multicellular tumor spheroids (MCTSs) were stained with calcein AM and propidium iodide (PI) in culture medium for 1.5 h. The live/dead cell distribution within the spheroids was then visualized using laser scanning confocal microscopy. […] This limited cell death is likely attributable to hypoxic and nutrient-deprived conditions resulting from excessive cell proliferation.
[…] MCF-7 cells were seeded into cell-repellent 96-well U-bottom plates (Sbio, Tokyo, Japan) at a density of 3000 cells per well and cultured for 72 h to promote spheroid formation. […] After treatment, spheroids were stained with 5 μM PI and 10 μM Calcein-AM, and observed under a fluorescence microscope (Olympus, Tokyo, Japan).

HepG2 = assay: CCK-8 antiproliferative assay, HepG2; type: cell-based; settings: Homo sapiens, HepG2; CCK-8, 48 h, mean ± SD of three experiments; read-out: IC50 HepG2
Experimental: After synthesis and characterization, the isolongifolenone bicyclocaprolactam derivatives were evaluated for their in vitro antiproliferative activity against three cancer cell lines (MCF-7, HepG2, A549) using a CCK-8 assay. […] In general, the antiproliferative activities of most of these compounds were similar, irrespective of whether electron-withdrawing or electron-donating substituents were introduced in the phenoxy ring.
Three cancer cell lines (human breast adenocarcinoma cells MCF-7, human lung adenocarcinoma epithelial cells A549, and human hepatocellular carcinoma cells HepG2) were obtained from the Cell Bank of the Chinese Academy of Sciences (Shanghai, China). LO2 human normal liver cells were also purchased from STEM RECELL (Beijing, China, STM-CL-5770). The anti-proliferation activity of compounds was tested on three cancer cell lines. The cytotoxicity of compounds as tested on normal cell line (human normal liver cells LO2). Cells were seeded at a density of 5000 cells per well in 96-well plates. Natural product piperlongumine was used as the positive control. All experiments were performed in triplicate. Three cancer cell lines were cultured in High DMEM medium or RIPM 1640 containing 10% FBS (Sijiqing, Hangzhou, China) and 1% antibiotics at 37 °C in a 5% CO2 incubator. The experimental cells were seeded in a 96-well plate at 5000 cells per well and incubated for 24 h. The old medium was replaced with experimental medium, and the cells were cultured for 48 h. Afterward, 10 µL of CCK-8 solution was added to each well, and the cells were incubated for 3 h. The absorbance at 450 nm was measured using a microplate reader.

[4] = Figure 6A, E10 or E10 + 3MA, 24 h

In the case of `CC1(C)C2=CC(=O)N(C(=O)C=Cc3cccc(C(F)(F)F)c3)CC(C)(C)C23CCC1C3` (centres unmarked) [E10, 5,5,9,9-Tetramethyl-3-(3-(3-(trifluoromethyl)phenyl)acryloyl)-4,5,6,7,8,9-hexahydro-5a,8-methanobenzo[d]azepin-2(3H)-one], the “MDC staining, autophagosome formation” value (MCF-7 cells [1]) is reported as “significantly increased the number of punctate green fluorescence signals”, the apoptosis rate (MCF-7 cells [2]; E10 0.5 µM, 24 h) is reported as 7.78% and the apoptosis rate (MCF-7 cells [2]; E10 1.0 µM, 24 h) is reported as 19.53%. For the same molecule, the apoptosis rate (MCF-7 cells [2]; E10 2.0 µM, 24 h) was 24.93%, the Q1 necrotic cells (MCF-7 cells [2]; [4]) was 15.9 and the “Q2 late apoptotic cells” value (MCF-7 cells [2]; [4]) was 9.62. For the same molecule, the “Q3 early apoptotic cells” value (MCF-7 cells [2]; [4]) was 0.47, the Q4 viable cells (MCF-7 cells [2]; [4]) was 74.0 and the “cell apoptosis with or without autophagy blocker 3-MA” value (MCF-7 cells [2]; Figure 6A, in comparison with control) was “significantly increased”. The “viability and structural integrity of MCF-7 MCTSs” value [3] was “dose-dependent inhibitory effect” and the IC50 (HepG2) was 1360 ± 180 nM.
